pEC50, pIC50: −log10 of the molar value. Counter-ions that a name gives are not always drawn.
Key:
HIV-1 (strain IIIB) = assay: MT4 cell antiviral assay (as described in the method); assay type: cell-based; details: Human immunodeficiency virus 1, IIIB, control and standard in every assay, propidium iodide readout, read-out: expected range of IC50 values
Method: Antiviral HIV activity and compound-induced cytotoxicity were measured in parallel by means of a propidium iodide based procedure in the human T-cell lymphotropic virus transformed cell line MT4. Aliquots of the test compounds were serially diluted in medium (RPMI 1640, 10% fetal calf serum (FCS), and gentamycin) in 96-well plates (Costar 3598) using a Cetus Pro/Pette. Exponentially growing MT4 cells were harvested and centrifuged at 1000 rpm for 10 min in a Jouan centrifuge (model CR 4 12). Cell pellets were resuspended in fresh medium (RPMI 1640, 20% FCS, 20% IL-2, and gentamycin) to a density of 5×10^5 cells/ml. […]
For propidium iodide readout, 27 μl of 5% Nonidet-40 was added to each well of the incubation plate. […] The plates were analyzed in an automated assay instrument (Screen Machine, Idexx Laboratories). […]
For MTS readout, 20 μl CellTiter 96 AQ One Solution reagent (Promega #G3582) was added to each well. At 75 minutes following the addition of MTS reagent, absobance was read at 492 nm using a Tecan Sunrise 96-well plate reader. […]
For each assay plate, the results (relative fluorescence units, rfU, or OD values) of wells containing uninfected cells or infected cells with no compound were averaged, respectively. […] Percent of cells remaining is determined by the following formula: […]

HIV = details: cited from earlier work
HIV-1 NL4-3 wt = assay: MT4 cell antiviral assay, NL4-3 wt; assay type: cell-based; details: Human immunodeficiency virus 1, NL43, 120 h; MT4 cells, 5 days, HIV-induced cytopathic effect
HIV-1 V370A = assay: MT4 cell antiviral assay, V370A; assay type: cell-based; details: Human immunodeficiency virus 1, MT4, 120 h, read-out: EC50 V370A

Structure (SMILES)	pEC50 (HIV-1 NL4-3 wt)	pEC50 (HIV-1 V370A)	further results
Cc1cn([C@H]2C[C@H](N=[N+]=[N-])[C@@H](CO)O2)c(=O)[nH]c1=O [3′-azido-3′-deoxythymidine]			pIC50 (HIV-1 (strain IIIB)): 6.92 to 7.40
C=C(C)[C@@H]1CC[C@]2(C(=O)O)CC[C@]3(C)[C@H](CC[C@@H]4[C@@]5(C)CC[C@H](OC(=O)CC(C)(C)C(=O)O)C(C)(C)[C@@H]5CC[C@]43C)[C@@H]12 [Bevirimat]			mean reduction of HIV viral load (HIV; patients with trough levels >=20 μg/mL and no key baseline Gag polymorphisms at Q369, V370 or T371): 1.3 log10/mL; viral load reduction versus patients without Gag polymorphisms (HIV; users with Gag polymorphisms at Q369, V370 or T371): significantly lower load reductions
CC(C)C1=C2[C@H]3CC[C@@H]4[C@@]5(C)CC=C(C6=CCC(C(=O)O)CC6)C(C)(C)[C@@H]5CC[C@@]4(C)[C@]3(C)CC[C@@]2(NCCN2CCC(S(C)(=O)=O)CC2)CC1=O (stereo partly drawn) [Example 1, 4-((3aR,5aR,5bR,7aR,11aS,11bR,13aS)-1-Isopropyl-5a,5b,8,8,11a-pentamethyl-3a-((2-(4-(methylsulfonyl)piperidin-1-yl)ethyl)amino)-2-oxo-3,3a,4,5,5a,5b,6,7,7a,8,11,11a,11b,12,13,13a-hexadecahydro-2H-cyclopenta[a]chrysen-9-yl)cyclohex-3-enecarboxylic acid]	7.00	6.45	
CC(C)C1=C2[C@H]3CC[C@@H]4[C@@]5(C)CC=C(C6=CCC(C(=O)O)CC6)C(C)(C)[C@@H]5CC[C@@]4(C)[C@]3(C)CC[C@@]2(NCCN2CCS(=O)(=O)CC2)CC1=O (stereo partly drawn) [Example 2, 4-((3aR,5aR,5bR,7aR,11aS,11bR,13aS)-3a-((2-(1,1-Dioxidothiomorpholino)ethyl)amino)-1-isopropyl-5a,5b,8,8,11a-pentamethyl-2-oxo-3,3a,4,5,5a,5b,6,7,7a,8,11,11a,11b,12,13,13a-hexadecahydro-2H-cyclopenta[a]chrysen-9-yl)cyclohex-3-enecarboxylic acid]	8.10	7.74	
CC(C)C1=C2[C@H]3CC[C@@H]4[C@@]5(C)CC=C(C6=CCC(C(=O)O)CC6)C(C)(C)[C@@H]5CC[C@@]4(C)[C@]3(C)CC[C@@]2(NCCN(CCN(C)C)Cc2ccc(Cl)cc2)CC1=O (stereo partly drawn) [Example 3, 4-((3aR,5aR,5bR,7aR,11aS,11bR,13aS)-3a-((2-((4-Chlorobenzyl)(2-(dimethylamino)ethyl)amino)ethyl)amino)-1-isopropyl-5a,5b,8,8,11a-pentamethyl-2-oxo-3,3a,4,5,5a,5b,6,7,7a,8,11,11a,11b,12,13,13a-hexadecahydro-2H-cyclopenta[a]chrysen-9-yl)cyclohex-3-enecarboxylic acid]	7.96	7.38	
CC(C)C1=C2[C@H]3CC[C@@H]4[C@@]5(C)CC=C(c6ccc(C(=O)O)cc6)C(C)(C)[C@@H]5CC[C@@]4(C)[C@]3(C)CC[C@@]2(NCCN(CCN(C)C)Cc2ccc(Cl)cc2)CC1=O [Example 4, 4-((3aR,5aR,5bR,7aR,11aS,11bR,13aS)-3a-((2-((4-Chlorobenzyl)(2-(dimethylamino)ethyl)amino)ethyl)amino)-1-isopropyl-5a,5b,8,8,11a-pentamethyl-2-oxo-3,3a,4,5,5a,5b,6,7,7a,8,11,11a,11b,12,13,13a-hexadecahydro-2H-cyclopenta[a]chrysen-9-yl)benzoic acid hydrochloride salt]	7.54		
CC(C)C1=C2[C@H]3CC[C@@H]4[C@@]5(C)CC=C(c6ccc(C(=O)O)cc6)C(C)(C)[C@@H]5CC[C@@]4(C)[C@]3(C)CC[C@@]2(NCCN2CCS(=O)(=O)CC2)CC1=O [Example 5, 4-((3aR,5aR,5bR,11aS)-3a-((2-(1,1-Dioxidothiomorpholino)ethyl)amino)-1-isopropyl-5a,5b,8,8,11a-pentamethyl-2-oxo-3,3a,4,5,5a,5b,6,7,7a,8,11,11a,11b,12,13,13a-hexadecahydro-2H-cyclopenta[a]chrysen-9-yl)benzoic acid hydrochloride]	7.52	6.11	
CC(C)C1=C2C3CCC4[C@@]5(C)CC=C(c6ccc(C(=O)O)cc6)C(C)(C)C5CC[C@@]4(C)[C@]3(C)CC[C@@]2(NC(=O)CN2CCS(=O)(=O)CC2)CC1=O (stereo partly drawn) [Example 6, 4-((3aR,5aR,5bR,11aS)-3a-(2-(1,1-Dioxidothiomorpholino)acetamido)-1-isopropyl-5a,5b,8,8,11a-pentamethyl-2-oxo-3,3a,4,5,5a,5b,6,7,7a,8,11,11a,11b,12,13,13a-hexadecahydro-2H-cyclopenta[a]chrysen-9-yl)benzoic acid hydrochloride salt]	6.80		
CC(C)C1=C2C3CCC4[C@@]5(C)CC=C(c6ccc(C(=O)O)cc6)C(C)(C)C5CC[C@@]4(C)[C@]3(C)CC[C@@]2(NC(=O)N(CCN(C)C)Cc2ccc(Cl)cc2)CC1=O (stereo partly drawn) [Example 7, 4-((3aR,5aR,5bR,11aS)-3a-(3-(4-chlorobenzyl)-3-(2-(dimethylamino)ethyl)ureido)-1-isopropyl-5a,5b,8,8,11a-pentamethyl-2-oxo-3,3a,4,5,5a,5b,6,7,7a,8,11,11a,11b,12,13,13a-hexadecahydro-2H-cyclopenta[a]chrysen-9-yl)benzoic acid]	8.20		
CC(C)C1=C2C3CCC4[C@@]5(C)CC=C(c6ccc(C(=O)O)cc6)C(C)(C)C5CC[C@@]4(C)[C@]3(C)CC[C@@]2(NC(=O)CN(CCN(C)C)Cc2ccc(Cl)cc2)CC1=O (stereo partly drawn) [Example 8, 4-((3aR,5aR,5bR,11aS)-3a-(2-((4-chlorobenzyl)(2-(dimethylamino)ethyl)amino)acetamido)-1-isopropyl-5a,5b,8,8,11a-pentamethyl-2-oxo-3,3a, 4,5,5a,5b,6,7,7a,8,11,11a,11b,12,13,13a-hexadecahydro-2H-cyclopenta[a]chrysen-9-yl)benzoic acid]	8.70	8.10	

— patent US20190023733A1, “AMINE DERIVATIVES OF LUPANES WITH HIV MATURATION INHIBITORY ACTIVITY” (priority 2016, published 2019)
